From US20190076440A1, “TREATMENT OF TISSUE DISORDERS” (priority 2016, published 2019)

System: MCDS mice (homozygous N617K collagen X mutation)
Assay: Western blots of rib growth plate cartilage of MCDS mice
Type: in vivo, mouse
Details: 1 week
Protocol: FIG. 2 illustrates the effect of carbamazepine on the growth plate pathology associated with MCDS. 3 week old MCDS mice were treated with CBZ for a period of one week. Untreated MCDS mice and mice wild-type for collagen X (WT) were used as controls. (a) H+E staining of the tibial growth plate at 4 weeks of age. (b) Immunohistochemistry for Grp78 and (c) Immunohistochemistry for collagen X. Yellow bars show the hypertrophic zone. Scale bars equal to 100 μM in all cases. (d) is a table showing growth plate zone measurements at 4 weeks of age. Mean±SEM. Number of animals shown in brackets. Significance between mutant untreated mice and treated mice shown by the asterisk. (e) Western blots of rib growth plate cartilage at 4 weeks of age for Grp78, ATF4, p62/SQSTM1 and LC3-II alongside the associated coomassie blue stain used as a loading control. Quantification of these blots against the coomassie protein level is shown in supplementary S4. (f) X-ray images of the pelvis at 6 weeks of age. The angle between the lines was measured in a minimum of 5 animals and a graph showing the mean±SEM is shown in (g). Graphs showing the percentage increase in growth of the (h) tibia and (i) femur from 3 weeks of age.
FIG. 8 illustrates the quantification of western blots on mouse rib growth plate tissue MCDS mice were treated with CBZ for a period of one week. Untreated MCDS mice and mice wild-type for collagen X (WT) were used as controls. Rib cages were dissected, treated with collagenase for 2 hours and cartilage growth plates were further dissected from each individual rib. Growth plates were pooled from 3 individual mice and protein extracted in SDS-PAGE buffer. 20 μg was used in SDS-PAGE and western blotting. Quantification of (a) BiP, (b) ATF4, (c) p62 and (d) LC3B protein levels against the coomassie protein level. Mean±SEM of three independent experiments;
The generation and genotyping of the Col10a1 p.N617K mouse line has been described previously (Rajpar et al 2009). Mice homozygous for the MCDS-causing N617K collagen X mutation were x-rayed at 3 weeks of age and treated with carbamazepine (250 mg/kg/day) for up to 21 days via a subcutaneous implantation of a slow-release pellet (Innovative research of America USA C-113) whilst the mouse was under anaesthetic. […]
Rib-cages from 4 week old mice were dissected and placed in collagenase medium for 1-2 hours, after which the cartilage growth plates were collected using a dissecting microscope. […] The supernatant was collected and analysed by SDS-PAGE.
The protein concentration of samples was determined using a Pierce bicinchoninic acid (BCA) protein assay with a bovine serum albumin standard curve. […]

NC(=O)N1c2ccccc2C=Cc2ccccc21 [CBZ, Carbamazepine]
concentration of the autophagy substrate p62 in growth plate extracts (MCDS mice): decrease | LC3B-II protein in growth plate extracts (MCDS mice, autophagy marker): increase | ATF4 level on western blots of growth plate extracts (treated vs untreated MCDS mice): significantly reduced | BiP level on western blots of growth plate extracts (treated vs untreated MCDS mice): significantly reduced
